These results are taken from patent US10857230B2, “Co-therapy comprising a small molecule CSF-1R inhibitor and an agonistic antibody that specifically binds CD40 for the treatment of cancer” (Janssen Biotech, Inc., priority 2017, dated 2020).

The test concerns CT26 murine colon carcinoma cells. The experiment in a line: CT26 Tumor Size Assay (Example 2). To be noted: for Median TTE: 39-day study. It counts as in vivo, BALB/c mice. The method, then:
The animals were fed ad libitum water (reverse osmosis, 1 ppm CI) and NIH 31 Modified and Irradiated Lab Diet® consisting of 18.0% crude protein, 5.0% crude fat, and 5.0% crude fiber. The mice were housed on irradiated Enrich-o'Cobs™ bedding in static microisolators on a 12-hour light cycle at 20-22° C. (68-72° F.) and 40-60% humidity.
CT26 murine colon carcinoma cells were grown in RPMI-1640 medium containing 10% fetal bovine serum, 2 mM glutamine, 100 units/mL penicillin G sodium, 100 μg/mL streptomycin sulfate, and 25 μg/mL gentamicin. The cells were cultured in tissue culture flasks in a humidified incubator at 37° C., in an atmosphere of 5% CO2 and 95% air.
The CT26 colon cells used for implantation were harvested during log phase growth and re-suspended in cold PBS. Each mouse was injected subcutaneously in the right flank with 3×10^5 tumor cells (0.1 mL cell suspension) and tumors were monitored as their volumes approached the target range of 75 to 125 mm3. Fourteen days after tumor implantation, on Day 1 of the study, animals with individual tumor volumes ranging from 75 to 125 mm^3 were sorted into fourteen groups (n=10) with group mean tumor volumes of 118-119 mm3. Tumors were measured with calipers twice weekly in two dimensions.
where w=width and l=length, in mm, of a tumor. Tumor weight was estimated with the assumption that 1 mg is equivalent to 1 mm3 of tumor volume.
The compound of formula (I), rat IgG2a (Clone 2A3) (5.55 mg/mL), anti-mCD40 (Clone FGK45) (5.46 mg/mL, purchased from BioXCell, anti-mouse CD40, Clone: FGK45, SKU: 13E0016-2, Lot No. 4699/0614B), and anti-CSF1R (5.41 mg/mL, purchased from BioXCell anti-mouse CSF1R (CD115), Clone: AFS98, SKU: BE0213, Lot No. 5248/0814) were used as test compounds, alone and in combination. The compound of formula (I) was stored at room temperature and antibody stock solutions were stored at 4° C. upon receipt.
Each week of dosing, the compound of formula (I) was dissolved in 0.5% HPMC to yield a 1.0 mg/mL dosing solution. The dosing solution was stored at 4° C., protected from light. The rat IgG2a isotype and anti-CSF1R dosing solutions were prepared fresh each day by diluting aliquots of the stock solutions with PBS to yield 1.0 mg/mL dosing solutions. The dosing solutions were stored at 4° C., protected from light. The anti-mCD40 dosing solution was prepared fresh each day by diluting an aliquot of the stock solution with PBS to yield a 0.5 mg/mL dosing solution. The dosing solution was stored at 4° C., protected from light.
On Day 1 of the study, fourteen groups of BALB/c mice (n=10) began dosing according to the following protocol.
The vehicle (0.5% HPMC) and the compound of formula (I) were administered orally (p.o.). The rat IgG2a isotype control, anti-mCD40, and anti-CSF1R were administered intraperitoneally (i.p.). Rat IgG2a(2A3), the compound of formula (I) and the anti-CSF1R were administered at 10 mg/kg. The anti-mCD40 was administered at 5 mg/kg. The dosing volume for all animals was 10 mL/kg (0.2 mL per 20-g mouse) and was adjusted for body weight.
Tumors were measured using calipers twice per week. The study endpoint was originally defined as a mean tumor volume of 1500 mm^3 in the control group or 60 days, whichever came first. Day 15 was chosen for TGI analysis. The MTV (n), the median tumor volume for the number of animals, n, on Day 15, was determined for each group. Percent tumor growth inhibition (% TGI) was defined as the difference between the MTV of the designated control group (Group 1) and the MTV of the drug-treated group, expressed as a percentage of the MTV of the control group: […]
The data set for TGI analysis includes all animals in a group, except those that die due to treatment-related (TR) or non-treatment-related (NTR) causes.
Animals were monitored individually for tumor growth until Day 39. The study protocol specified a tumor growth delay assay based on the median time-to-endpoint (TTE) in a treated group versus the control group. […]

[1] abbreviates: Groups 3-7: all dosing from Day 1 (antibodies i.p. Days 1, 5, 9, formula (I) p.o. bid×14), formula (I) and anti-CSF1R 10 mg/kg, anti-mCD40 5 mg/kg, vs rat IgG2a control Group 1.
[2] abbreviates: Groups 9, 11, 13, 14: formula (I) 10 mg/kg p.o. bid×14 beginning Day 4 or anti-CSF1R 10 mg/kg i.p. Days 4, 8, 12, in combinations anti-mCD40 5 mg/kg i.p. Days 1, 5, 9, vs rat IgG2a control Group 1.

Several values for one entry are separate records, joined by “and”; a condition that tells them apart may be missing. Equal values may be shown once.

In the case of `CC1(C)CC=C(c2nc(C3CC(C)(C)OC(C)(C)C3)ccc2NC(=O)c2nc(C#N)c[nH]2)CC1` [compound of formula (I), 4-cyano-N-(2-(4,4-dimethylcyclohex-1-en-1-yl)-6-(2,2,6,6-tetramethyltetrahydro-2H-pyran-4-yl)pyridin-3-yl)-1H-imidazole-2-carboxamide], the “MTV (n) Day 15” value reads like this: (Day 15, Groups 3-7: all dosing from Day 1 (antibodies i.p. Days 1, 5, 9, formula (I) p.o. bid×14), formula (I) and anti-CSF1R 10 mg/kg, anti-mCD40 5 mg/kg) 1913 mm^3; (Day 15, Groups 9, 11, 13, 14: formula (I) 10 mg/kg p.o. bid×14 beginning Day 4 or anti-CSF1R 10 mg/kg i.p. Days 4, 8, 12, in combinations anti-mCD40 5 mg/kg i.p. Days 1, 5, 9) 1545 mm^3 and 1545 (8) mm^3. The “% TGI” value came to 23% (Day 15, vs rat IgG2a control Group 1, Groups 3-7: all dosing from Day 1 (antibodies i.p. Days 1, 5, 9, formula (I) p.o. bid×14), formula (I) and anti-CSF1R 10 mg/kg, anti-mCD40 5 mg/kg); 38% (Day 15, vs rat IgG2a control Group 1, Groups 9, 11, 13, 14: formula (I) 10 mg/kg p.o. bid×14 beginning Day 4 or anti-CSF1R 10 mg/kg i.p. Days 4, 8, 12, in combinations anti-mCD40 5 mg/kg i.p. Days 1, 5, 9). Also, the “Median TTE” value is 13.0 days (Groups 3-7: all dosing from Day 1 (antibodies i.p. Days 1, 5, 9, formula (I) p.o. bid×14), formula (I) and anti-CSF1R 10 mg/kg, anti-mCD40 5 mg/kg, 1500 mm^3 endpoint); 13.9 days (Groups 9, 11, 13, 14: formula (I) 10 mg/kg p.o. bid×14 beginning Day 4 or anti-CSF1R 10 mg/kg i.p. Days 4, 8, 12, in combinations anti-mCD40 5 mg/kg i.p. Days 1, 5, 9, 1500 mm^3 endpoint). Moreover, the “% TGD” value by setting is: under setting [1], 7%; under setting [2], 15%. Also, the T-C reads like this: under setting [1], 0.9 days; under setting [2], 1.8 days.
